Data on one molecule can be found in patent US20180326022A1, “COMPOSITIONS AND METHODS FOR IMPROVING HEART FUNCTION AND TREATING HEART FAILURE” (The Trustees of the University of Pennsylvania, priority 2017, published 2018).

The subject of experiment [1] is human myocytes. Put plainly: Cell contractility of human myocytes (0.5 Hz). The experiment is classed as cell-based. The procedure: Viable myocytes were concentrated by gravity (5-7 min) and supernatant was aspirated to remove dead cells. Myocytes were resuspended in NT solution containing 1 mM Ca^2+ and concentrated by gravity (5-7 min) again. Cardiomyocytes used acutely were maintained in NT solution for up to 6 hours. Myocytes were treated with 10 μM parthenolide (Fisher Scientific NC9013142 or Sigma P0667) or 10 μM colchicine (Sigma) at room temperature in NT solution for 2 hours. Experiments were performed within 6 hours of isolation, except for those involving viral transduction in cultured cells.
MatTek glass bottom dish was coated 5 μl of 0.5 mg/ml laminin and air dried for 10 min. Culture medium was F-10 (1×) Nutrient Mixture (Ham) [+] L-Glutamine (Life Technologies, 11550-043) supplemented with insulin-transferrin selenium-X (Gibco, 51500-056), 20 mM HEPES, 1 μg/μl primocin (Invivogen, ant-pm-1), 0.4 mM extra CaCl2, 5% FBS, 25 μM cytochalasin D (Cayman, 11330). Viable myocytes were concentrated and a proper amount of medium was added in culture so that neighboring cells were not in direct contact. Viral constructs were permitted to express for 48 hours with Moi=100-200. Adenoviral TTL-IRES-dsRed and EMTB-3x GFP were transduced in human myocytes as previously performed in rat myocytes. Myocytes were replenished with fresh warm medium without cytochalasin D before calcium and contractility measurements.
Experiments were performed as described in Example 1 with some modification. Contractility is measured in custom-fabricated cell chambers (Ionoptix) mounted on an LSM Zeiss 880 inverted confocal microscope using a 40× oil 1.4 NA objective and transmitted light camera (IonOptix MyoCam-S). Myoyctes were maintained in NT solution (for freshly isolated myocytes) or culture medium (without cytochalasin D, for cultured myocytes) at room temperature and electrical field stimulation was provided at 0.5 Hz with a myopacer (IonOptix MYP100) through platinum electrodes lowered into the bath. Sarcomere length was measured optically by Fourier transform analysis (IonWizard, IonOptix). After 10-30 s of 0.5 Hz pacing to achieve steady state, five traces were recorded and analyzed. If not specified, contractility data was obtained at room temperature.
To test whether the contractile improvement over MT destabilization remains under more physiological conditions, both 0.5 Hz and 1 Hz contractions at 37 C were recorded and analyzed in a small subset of isolated human myocytes (1 NF and 1 failing heart, FIG. 29C).

The subject of experiment [2] is cardiac and skeletal muscle. Particulars: 10 μM; refs (13), (8); cited from earlier work.
The subject of experiment [3] is isolated cardiomyocytes. Nature of the experiment: Atomic force microscopy viscoelasticity (Standard Linear Solid Model). The experiment is classed as cell-based, rat. To be noted: mean(SEM). As to the method:
The elastic modulus of isolated cardiomyocytes was measured using AFM indentation. Optical microscopy and AFM were performed simultaneously using an MFP3D AFM (Asylum Research) combined with an inverted Nikon TE-2000U microscope equipped with a Nikon 100×, 1.49 NA objective. TTL expression was determined by dsRED fluorescence captured via 532 nm laser excitation (CrystaLaser) and a CCD camera (Cascade-512B, Photometrics) at 900 ms exposure time controlled through the NIS Elements software package. […] Modulus characterization of myocytes was performed using 4.26 μm radius (R below) SiO2 microparticle epoxied to SiN cantilevers with nominal spring constant 0.03 N/m (CP-PNPS-SiO-A, Nano And More, USA). Cantilever spring constants were manually calibrated in air by thermal vibrations using the MFP3D prior to each experiment using a clean glass substrate. Inverse optical lever sensitivity was determined in myocyte buffer solution prior to each round of measurements.
Elastic moduli were determined by fitting the indentation curve to the Hertz model (Eq. 17) adjusted for a spherical indenter using the Asylum Research built in analysis software.
E is the elastic modulus, υ, is the cell Poisson ratio and δ is the indentation depth. Transverse compression of the cardiomyocyte is performed over a range of indentation speeds and the indentation speed is divided by the total indentation depth to obtain an effective indentation rate, f. Viscosity and velocity dependent elastic moduli were then derived by fitting each myocyte to a Standard Linear Solid Model: […]

Experiment [4] concerns rat adult cardiomyocytes. Nature of the experiment: Immunofluorescence quantification of α- and dTyr-tubulin fraction of cell area. The experiment is classed as cell-based. As to the method: (§1) Viral constructs were permitted to express for 24-72 hours with Moi=100-200. Parthenolide (Fisher Scientific NC9013142) treatment was carried out at room temperature for 2 hours at 10 μM. All experiments were performed within 48 hours of isolation, except those involving shTTL, which were allowed 72 hours to improve knockdown efficiency.
Cells were fixed in 4% PFA for 15 minutes and permeabilized in 0.5% TritonX-100 for 4 minutes at room temperature. Alternately cells were fixed in methanol at −20° C. for 7 minutes. After washing, cells were placed in blocking buffer (5% BSA and 0.1% TritonX-100 in PBS) for 1 hour, then labeled with primary antibodies (below) for 24-48 hours at 4° C. Cells were then washed 4× in blocking buffer, labeled with secondary antibodies (below) at room temperature and washed 3× in blocking buffer. Stained cells were mounted on mouse laminin coated #1.5 coverslips in Prolong Gold Antifade Mountant (Life Technologies P36934) for imaging.
Confocal imaging was carried out on a Zeiss 780 laser scanning confocal scan head operating on an Axiovert Z1 inverted microscope equipped with a 40× oil 1.4 NA objective. High-speed super resolution imaging was carried out on a Zeiss 880 Airyscan confocal with a 63×1.4 oil NA objective (FIG. 8A-FIG. 8E, Airyscan application note can be found at http://www.zeiss.com/microscopy/enus/products/confocal-microscopes/Ism-880-with-airyscan-.html#downloads). Image analysis was performed using ZEN Black software for Airyscan processing, which involves signal integration from the 32 separate sub-resolution detectors in the Airyscan detector and subsequent deconvolution of this integrated signal (FIG. 8A-FIG. 8E). Additional signal processing was performed in Image J (NIH). For calculating the microtubule fraction of cell area (FIG. 2B-FIG. 2C), image analysis was performed blinded to the experimental treatment groups. A 1.5 μm max intensity projection was produced from 3 0.5 μm confocal z-sections. […] From the resulting binary images (FIG. 9B), the microtubule positive fraction of the total cell area was calculated for alpha and detyrosinated tubulin (FIG. 2C).

In experiment [5] the test system is primary adult rat cardiomyocytes. Nature of the experiment: Cell contractility (sarcomere shortening, 1 Hz pacing). To be noted: rat cardiomyocytes, 1 Hz; PTL 10 μM 2 hours. The experiment is classed as cell-based. The procedure:
as §1
Experiments were performed in custom-fabricated cell chambers (Ionoptix) mounted on an LSM Zeiss 780 inverted confocal microscope using a 40× oil 1.4 NA objective and transmitted light camera (IonOptix MyoCam-S). For contractility assays, cells were maintained in NT solution and electrical field stimulation was provided at 1 Hz with a myopacer (IonOptix MYP100) through platinum electrodes lowered into the bath. Sarcomere length was measured optically by Fourier transform analysis (IonWizard, IonOptix). After 15 s of 1 Hz pacing to achieve steady state, five traces were recorded and analyzed.

Where [6] appears, read: rat cardiomyocytes, thresholded immunofluorescence, TTL vs null, PTL vs ctrl.

In the case of `C=C1C(=O)O[C@H]2[C@H]1CC/C(C)=C/CC[C@@]1(C)O[C@@H]21` [PTL, 4,5-epoxygermacra-1(10),11(13)-dien-12,6-olactone], in experiment [1] (NF human myocytes, 10 μM PTL), the “late phase of relaxation” value is listed as “slightly prolonging”. Further, in experiment [1] (failing human myocytes), the “restoration of lost function (contractile velocities vs NF benchmark)” value was around 50%. Besides, in experiment [1] (failing human myocytes, 10 μM, 2 hours), the “shortening amplitude and velocity, speed of relaxation” value was “robustly improved”. For the same molecule, the effect on microtubules entry in experiment [2] is on record as “suppresses detyrosination”. The “η (Pa*s)” value in experiment [3] (SLSM-fit derived viscosity) is given as 38.8(8.0) Pa*s. In addition, the “E2 (Pa)” value in experiment [3] (velocity-dependent elastic modulus) was 215.3(25.0) Pa. For the same molecule, the “E1 (Pa)” value in experiment [3] (velocity-independent elastic modulus) was 170.6(22.5) Pa. In experiment [4] (PTL treatment), the “effect on MT network density” value was “no effect”. Further, the “reduction in the amount/fraction of polymerized, detyrosinated MTs” value in experiment [4] (isolated rat cardiomyocytes, immunofluorescence and immunoblot) was determined as 2 fold. For the same molecule, in experiment [4] (setting [6]), the “Detyr (% cell area)” value stood at 30.8 % cell area and the “α-tub (% cell area)” value was found to be 67.8 % cell area. For the same molecule, in experiment [5], the “Resting SL (μm)” value came to 1.803 μm, the “Vmax (μm/s)” value is recorded as −5.35 μm/s, the “Vmin (μm/s)” value turned out to be 4.28 μm/s and the “ΔSL (μm)” value was 0.201 μm.
